Common to all, as to assay type: in vivo
Test [1] has as its system Aphis gossypii. The experiment in a line: Test Example 2: pesticidal effect against Aphis gossypii (Part 2), same test as Test Example 1 with other insecticides, death rate and Colby theoretical value. The note with it: other insecticide 0.078 ppm alone (compound 261 0 ppm); for Theoretical value calculated by Colby's formula: Table 21; for Pesticidal effect against Aphis gossypii, death rate: cucumber leaf disk, 3 days. From the text:
(§1) A leaf disk having a diameter of 2.0 cmφ was cut out from a cucumber grown in a pot and was placed in a 5.0 cm-Schale. Test admixture solutions, prepared by diluting the composition of the present invention with a 50% aqueous acetone solution (0.05% Tween 20 added) to predetermined concentrations specified in Table 18, test single active ingredient solutions in which only compound 261 had been dissolved without mixing other insecticides, or test single active ingredient solutions in which only other insecticides had been dissolved without mixing any pyripyropene derivative were spread over the cucumber leaf disk. The leaf disk was then air dried. Ten larvae at the first instar born of Aphis gossypii were released in the Schale. Thereafter, the Schale was lidded and was allowed to stand in a humidistat chamber (light period 16 hr-dark period 8 hr) (25° C.). […] Death rate (%)={number of dead larvae/(number of survived larvae+number of dead larvae)}×100
(§2) Colby's formula: Theoretical value (%)=100−(A×B)/100
(§3) When the pesticidal effect (Table 18) of the composition of the present invention in, an admixture form against Aphis gossypii exceeded the theoretical value calculated by the Colby's formula shown in Table 19, the admixture was determined to have a synergistic effect.
The same test as in Test Example 1 was performed, except that the other insecticides were changed to those specified in Table 20.

The subject of a further test is Plutella xylostella. Briefly: Test Example 3: pesticidal effect against Plutella xylostella, cabbage leaf disk, death rate of second-instar larvae and Colby theoretical value. As to conditions: other insecticide 0.156 ppm alone (compound 261 0 ppm). From the text: A leaf disk having a diameter of 5.0 cmφ was cut out from a cabbage grown in a pot and was placed in a plastic cup. Test admixture solutions, prepared by diluting the composition of the present invention with a 50% aqueous acetone solution (0.05% Tween 20 added) to predetermined concentrations specified in Table 22, test single active ingredient solutions in which only compound 261 had been dissolved without mixing other insecticides, or test single active ingredient solutions in which only other insecticides had been dissolved without mixing any pyripyropene derivative were spread over the cabbage leaf disk. The leaf disk was then air dried. Five larvae at the second instar born of Plutella xylostella were released in the cup. Thereafter, the cup was lidded and was allowed to stand in a humidistat chamber (light period 16 hr-dark period 8 hr) (25° C.). […] Death rate (%)={number of dead larvae/(number of survived larvae+number of dead larvae)}×100
Colby's formula: Theoretical value (%)=100−(A×B)/100 […]
When the pesticidal effect (Table 22) of the composition of the present invention in an admixture form against Plutella xylostella exceeded the theoretical value calculated by the Colby's formula shown in Table 23, the admixture was determined to have a synergistic effect.

Test [2] concerns Aphis gossypii. The experiment in a line: Test Example 1: pesticidal effect against Aphis gossypii (Part 1), cucumber leaf disk, death rate of first-instar larvae and Colby theoretical value. As to conditions: other insecticide 0.078 ppm alone (compound 261 0 ppm); for Theoretical value calculated by Colby's formula: Table 19; for Death rate of Aphis gossypii by single active ingredient or admixture: cucumber leaf disk, first-instar larvae, 3 days.
Excerpt: as §1, §2
wherein A: 100—(death rate when treatment was performed only with compound 261); and • B: 100—(death rate when treatment was performed only with each of flonicamid, acetamiprid, fipronil, imidacloprid)
as §3

In the case of `CN/C(=N\[N+](=O)[O-])NCc1cnc(Cl)s1` [clothianidin], in the test with Aphis gossypii [1], the “Theoretical value calculated by Colby's formula” value (from here on “Theoretical value calculated”) is recorded as 79% and the “Pesticidal effect against Aphis gossypii, death rate” value (shortened to “Pesticidal effect … death rate”) is recorded as 79%.

Turning to `CCOCn1c(-c2ccc(Cl)cc2)c(C#N)c(Br)c1C(F)(F)F` [chlorfenapyr], in the test on Plutella xylostella (Table 23), the “Theoretical value calculated” value is on record as 0%. Moreover, the “Pesticidal effect against Plutella xylostella, deathrate” value with Plutella xylostella (cabbage leaf disk, second-instar larvae, 3 days) is listed as 0%.

On to `C/C(=N\C#N)N(C)Cc1ccc(Cl)nc1` [acetamiprid], for which, in the test on Aphis gossypii [2], the “Theoretical value calculated” value is listed as 58% and the “Death rate of Aphis gossypii by single active ingredient or admixture” value (“Death rate of Aphis gossypii” below) was determined as 58%.

In the case of `CN1COCN(Cc2cnc(Cl)s2)/C1=N\[N+](=O)[O-]` [thiamethoxam], in the test with Aphis gossypii [1], the “Theoretical value calculated” value is 65% and the “Pesticidal effect … death rate” value is on record as 65%.

For the compound `N#Cc1nn(-c2c(Cl)cc(C(F)(F)F)cc2Cl)c(N)c1[S+]([O-])C(F)(F)F` (stereo not shown) [fipronil], in the test with Aphis gossypii [2], the “Theoretical value calculated” value is recorded as 0% and the “Death rate of Aphis gossypii” value was found to be 0%.

As to `N#CCNC(=O)c1cnccc1C(F)(F)F` [flonicamid], in the test with Aphis gossypii [2], the “Theoretical value calculated” value is on record as 10% and the “Death rate of Aphis gossypii” value stood at 10%.

As to `CN/C(=N/CC1CCOC1)N[N+](=O)[O-]` (stereo not shown) [dinotefuran], in the test on Aphis gossypii [1], the “Theoretical value calculated” value is reported as 40% and the “Pesticidal effect … death rate” value is recorded as 40%.

For `O=[N+]([O-])NC1=NCCN1Cc1ccc(Cl)nc1` [imidacloprid], in the test with Aphis gossypii [2], the “Theoretical value calculated” value is 20% and the “Death rate of Aphis gossypii” value was 20%.

Source of the values: patent US9675075B2, “Pest control composition” (MEIJI SEIKA PHARMA CO., LTD., priority 2007, dated 2017).
